Assay results reported in patent publication US20210187130A1, “PET RADIOPHARMACEUTICALS FOR NON-INVASIVE EVALUATION OF HIF-2alpha” (THE BOARD OF REGENTS OF THE UNIVERSITY OF TEXAS SYSTEM, priority 2019, published 2021).
“Also recorded” adds a separate entry of the source.

Legend:
[1] = system: ccRCC; assay: Phase 1 clinical trial in patients with ccRCC; format: in vivo
Description: The drug was remarkably well tolerated and a maximal tolerated dose (MTD) was not reached. […] The drug was also highly specific, and high-grade adverse effects were on-target, and expected, such as anemia (HIF-2 is known to regulate erythropoietin, and the effect could be overcome by exogenous erythropoietin administration). While the patient cohort evaluated had been extensively pretreated (typically ≥4 prior lines), activity of the inhibitor was still observed. Among 51 patients treated in the study at various dose levels, there was 1 complete response (CR), 6 partial response (PR), and 13 patients who remained on the study without progression beyond a year (FIG. 5). Overall, 42% of patients remained without progression for at least 4 months. […] Those data illustrated that even in highly pretreated RCC patients the HIF-2 Inhibitor was able to remain active.
The Phase I trial was accompanied by a companion study involving imaging and tissue acquisition.

[2] = system: ccRCC TGs; assay: PT2399 in RCC tumorgraft (patient-derived xenograft) platform; format: in vivo, mice
Method: (§1) This compound was evaluated in over 250 mice implanted with RCCs from 22 patients. […] This was also observed clinically.
Tumor samples collected fresh from kidney cancer surgeries were implanted orthotopically (in the kidney) of immunocompromised mice (NOD/SCID) within 3 hours. The samples were implanted without disaggregation or any additives, and it was previously shown that these tumorgrafts retained the histology, gene expression, DNA copy number alterations, mutations, and treatment responsiveness of the patient tumors. This platform of human RCC tumorgraft models was used to validate HIF-2α as a target in ccRCC (FIGS. 1 and 2). […] This same platform was used to evaluate the uptake of [^11C]PT2385 by ccRCC tumorgrafts expressing HIF-2α by PET imaging.

[3] = Tolerance (body weight) of tumorgraft-bearing mice; format: in vivo; details: sunitinib at doses reproducing patient exposures
Method: as §1

[4] = among 51 patients, various dose levels

| Compound | complete response (CR), number of patients [1, 4] | partial response (PR), number of patients [1, 4] | patients remaining on study without progression beyond a year [1, 4] | serious adverse effects requiring treatment discontinuation ([1]; any patient) | maximal tolerated dose (MTD) ([1]; dose escalation and dose expansion cohorts) | dose-limiting toxicities ([1]; human, in vivo) | high-grade adverse effects (on-target) ([1]; human, in vivo) | patients without progression for at least 4 months ([1]; overall) [%] | activity in HIF-2α deficient tumors ([1]; preliminary studies of patient tumor samples) | ccRCC tumorgrafts responsive (sensitive lines) ([2]; RCCs from 22 patients, over 250 mice) | number of intermediate tumorgraft lines ([2]; of all 22 tumorgraft lines) | number of resistant tumorgraft lines ([2]; of all 22 tumorgraft lines) | number of sensitive tumorgraft lines ([2]; of all 22 tumorgraft lines) | activity compared with sunitinib ([2]; tumorgraft growth, sunitinib standard of care at the time) | body weight change of treated mice [3] |
| --- | --- | --- | --- | --- | --- | --- | --- | --- | --- | --- | --- | --- | --- | --- | --- |
| CS(=O)(=O)c1ccc(Oc2cc(F)cc(C#N)c2)c2c1[C@H](O)C(F)(F)C2 [PT2385] | 1 | 6 | 13 | no serious adverse effects requiring treatment discontinuation | not reached | no dose-limiting toxicities | anemia | 42 | no activity | – | – | – | – | – | – |
| N#Cc1cc(F)cc(Oc2ccc(S(=O)(=O)C(F)F)c3c2CC(F)(F)[C@H]3O)c1 [PT2399] | – | – | – | – | – | – | – | – | – | approximately 50% | 5 | 7 | 10 | more active than Sunitinib; also recorded: more effective than sunitinib | did not |
| CCN(CC)CCNC(=O)c1c(C)[nH]c(/C=C2\C(=O)Nc3ccc(F)cc32)c1C [sunitinib] | – | – | – | – | – | – | – | – | – | – | – | – | – | – | lost weight |
